# Measurements reported in PubChem BioAssay AID252 (DTP/NCI, 2004).
# Where “and” joins values, the source holds several entries; their conditions need not be identical. Identical values can stand only once. Toxic doses and inconclusive results are not listed.
# Tested on: BDF1 mice, intracerebral L1210 leukemia, survival T/C
# Assay: NCI In Vivo Anticancer Drug Screen. Data for tumor model L1210 Leukemia (intracerebral) in B6D2F1 (BDF1) mice
# Conditions: higher = longer survival
# Description: The antitumor activity of compounds was measured in mice bearing transplantable tumors. Survival or tumor size were measured and the results are expressed as the measurement made in the treated group (T) divided by the measurement made in the vehicle treated control group (C). The tumor model used in this assay is L1210 Leukemia (intracerebral) in B6D2F1 (BDF1) mice
smiles,measurement,setting,value
CNNCc1ccc(C(=O)NC(C)C)cc1,T/C,"endpoint: mean survival time, dose: 25.0 mg/kg/injection, schedule: Q01DX009 (ip), vehicle: saline",105 % of control
same,T/C,"endpoint: mean survival time, dose: 40.0 mg/kg/injection, schedule: Q01DX Z (ip), vehicle: saline",122 % of control
same,T/C,"endpoint: mean survival time, dose: 50.0 mg/kg/injection, schedule: Q01DX009 (ip), vehicle: saline",108 % of control
same,T/C,"endpoint: mean survival time, dose: 64.0 mg/kg/injection, schedule: Q01DX010 (oral), vehicle: clinical formulation",102 % of control
same,T/C,"endpoint: mean survival time, dose: 160.0 mg/kg/injection, schedule: Q01DX Z (ip), vehicle: saline",155 % of control
same,T/C,"endpoint: median survival time, dose: 0.5 mg/kg/injection, schedule: Q01DX010 (ip), vehicle: clinical formulation",105 % of control
same,T/C,"endpoint: median survival time, dose: 0.5 mg/kg/injection, schedule: Q01DX010 (ip), vehicle: saline",106 % of control
same,T/C,"endpoint: median survival time, dose: 1.0 mg/kg/injection, schedule: Q01DX010 (ip), vehicle: clinical formulation",105 % of control
same,T/C,"endpoint: median survival time, dose: 1.0 mg/kg/injection, schedule: Q01DX010 (ip), vehicle: saline",103 % of control
same,T/C,"endpoint: median survival time, dose: 1.0 mg/kg/injection, schedule: Q01DX010 (oral), vehicle: clinical formulation",105 % of control
same,T/C,"endpoint: median survival time, dose: 2.0 mg/kg/injection, schedule: Q01DX010 (ip), vehicle: clinical formulation",103 % of control
same,T/C,"endpoint: median survival time, dose: 2.0 mg/kg/injection, schedule: Q01DX010 (ip), vehicle: saline",106 % of control
same,T/C,"endpoint: median survival time, dose: 2.0 mg/kg/injection, schedule: Q01DX010 (oral), vehicle: clinical formulation",103 % of control
same,T/C,"endpoint: median survival time, dose: 4.0 mg/kg/injection, schedule: Q01DX010 (ip), vehicle: clinical formulation",99 % of control
same,T/C,"endpoint: median survival time, dose: 4.0 mg/kg/injection, schedule: Q01DX010 (ip), vehicle: saline",106 % of control
same,T/C,"endpoint: median survival time, dose: 4.0 mg/kg/injection, schedule: Q01DX010 (oral), vehicle: clinical formulation",105 % of control
same,T/C,"endpoint: median survival time, dose: 8.0 mg/kg/injection, schedule: Q01DX010 (ip), vehicle: clinical formulation",101 % of control
same,T/C,"endpoint: median survival time, dose: 8.0 mg/kg/injection, schedule: Q01DX010 (ip), vehicle: saline",111 % of control
same,T/C,"endpoint: median survival time, dose: 8.0 mg/kg/injection, schedule: Q01DX010 (oral), vehicle: clinical formulation",95 % of control
same,T/C,"endpoint: median survival time, dose: 16.0 mg/kg/injection, schedule: Q01DX010 (ip), vehicle: clinical formulation",103 % of control
same,T/C,"endpoint: median survival time, dose: 16.0 mg/kg/injection, schedule: Q01DX010 (ip), vehicle: saline",109 % of control
same,T/C,"endpoint: median survival time, dose: 16.0 mg/kg/injection, schedule: Q01DX010 (oral), vehicle: clinical formulation",92 % of control
same,T/C,"endpoint: median survival time, dose: 32.0 mg/kg/injection, schedule: Q01DX010 (ip), vehicle: clinical formulation",101 % of control
same,T/C,"endpoint: median survival time, dose: 32.0 mg/kg/injection, schedule: Q01DX010 (ip), vehicle: saline",104 % of control
same,T/C,"endpoint: median survival time, dose: 32.0 mg/kg/injection, schedule: Q01DX010 (oral), vehicle: clinical formulation",97 % of control
same,T/C,"endpoint: median survival time, dose: 64.0 mg/kg/injection, schedule: Q01DX010 (oral), vehicle: clinical formulation",109 % of control
same,T/C,"endpoint: median survival time, dose: 128.0 mg/kg/injection, schedule: Q01DX010 (oral), vehicle: clinical formulation",104 % of control
CCCOC1=C(N2CC2)C(=O)C(OCCC)=C(N2CC2)C1=O,T/C,"endpoint: mean survival time, dose: 0.25 mg/kg/injection, schedule: Q01DX009 (ip), vehicle: saline",105 % of control
same,T/C,"endpoint: mean survival time, dose: 0.5 mg/kg/injection, schedule: Q01DX005 (ip), vehicle: saline",97 % of control
same,T/C,"endpoint: mean survival time, dose: 0.5 mg/kg/injection, schedule: Q01DX009 (ip), vehicle: saline",113 % of control
same,T/C,"endpoint: mean survival time, dose: 1.0 mg/kg/injection, schedule: Q01DX005 (ip), vehicle: saline",101 % of control
same,T/C,"endpoint: mean survival time, dose: 1.0 mg/kg/injection, schedule: Q01DX009 (ip), vehicle: saline",104 % of control and 302 % of control
same,T/C,"endpoint: mean survival time, dose: 2.0 mg/kg/injection, schedule: Q01DX005 (ip), vehicle: saline",108 % of control
same,T/C,"endpoint: mean survival time, dose: 2.0 mg/kg/injection, schedule: Q01DX009 (ip), vehicle: saline",111 % of control and 117 % of control
same,T/C,"endpoint: mean survival time, dose: 4.0 mg/kg/injection, schedule: Q01DX005 (ip), vehicle: saline",106 % of control
same,T/C,"endpoint: mean survival time, dose: 4.0 mg/kg/injection, schedule: Q01DX009 (ip), vehicle: saline",117 % of control
O=C1C=CN(C2OC(CO)C(O)C2O)C(=O)C1 (configuration not stated),T/C,"endpoint: median survival time, dose: 200.0 mg/kg/injection, schedule: Q01DX009 (ip), vehicle: saline",150 % of control
